The target in assay [1] is T1, UspC (Mtb-UspC, Rv2318), solute-binding protein of the UspABC transporter (Mycobacterium tuberculosis, UniProt P71894).
T1 construct: UspCNt, N-terminally truncated, residues 31–441, His6-tagged
As to the kind of experiment: thermal shift saturation binding (Kd,app), Tm shift […]°C at […].

Assay [2] deals with T1, UspC (Mtb-UspC, Rv2318), solute-binding protein of the UspABC transporter. As to the kind of experiment: STD-NMR ([…] ligand, […] protein) and thermal shift.

Structures are written as SMILES.

T1 sequence (P71894 entry or part of it): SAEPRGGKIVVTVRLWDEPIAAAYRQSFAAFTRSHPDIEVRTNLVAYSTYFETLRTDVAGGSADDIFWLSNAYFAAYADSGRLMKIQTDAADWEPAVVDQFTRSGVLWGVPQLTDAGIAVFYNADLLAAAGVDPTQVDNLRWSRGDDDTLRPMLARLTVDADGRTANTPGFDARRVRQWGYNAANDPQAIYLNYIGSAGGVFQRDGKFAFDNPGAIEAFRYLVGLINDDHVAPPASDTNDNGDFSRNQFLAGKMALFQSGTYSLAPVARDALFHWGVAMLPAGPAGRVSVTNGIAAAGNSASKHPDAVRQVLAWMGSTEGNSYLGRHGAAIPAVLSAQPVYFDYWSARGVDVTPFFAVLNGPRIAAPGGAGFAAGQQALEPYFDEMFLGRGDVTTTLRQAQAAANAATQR

Consider `N[C@H]1C(O)O[C@H](COP(=O)(O)O)[C@@H](O)[C@@H]1O` (stereo partly drawn) [D-glucosamine-6-phosphate], for which, in assay [1], the Kd is 27.7 ± 6.4 mM.
For `N[C@H]1C(O)O[C@H](CO)[C@@H](O)[C@@H]1O` (stereo partly drawn) [D-glucosamine], the “STD-NMR (50 mM ligand, 30 μM protein) and thermal shift” value in assay [2] was “H2 (α and β) and H4 (α and β) of D-glucosamine interact non-covalently with Mtb-UspCNt”.

(Values after paper PMC4929945, “Structural and functional analysis of the solute-binding protein UspC from Mycobacterium tuberculosis that is specific for amino sugars” (Open Biology, 2016).)
